Values joined by “and” are separate entries in the source; they are usually repeats but may differ in a detail not shown here. Equal values may be shown once. Read-outs that look alike come from different tables or passages of the source. No end group written: not given here.
Tests used:
CD8+ T cells = tested on: CD8+ T cells; parameters: species or system transgenic HLA-A24 mice; conditions: mouse, in vivo
[1] = tested on: memory CD8^+ T cells within PBMCs; assay type: cell-based, human
CD8^+ T cells [2] = tested on: CD8^+ T cells
tetramer^+ CD8^+ T cells [3] = assay type: cell-based, human
HLA-A*02:01 [4] = biological target: T1, HLA-A*02:01 (Homo sapiens, UniProt P04439, D140Y/D185E/D98H/E176V/E277Q/G131W/G231S/I119V/I121R/I166T/I218V/L300P/L318F/N151K/N90K/P208A/P217A/Q86G/Q94H/R138H/R169H/T345S); conditions: reference 34; cited from earlier work
tetramer^+ CD8^+ T cells [5] = assay: Tetramer staining of IAV- or IBV-specific CD8^+ T cell lines established in vitro from healthy adult PBMC; assay type: cell-based, human; conditions: for tetramer^+ of CD8^+ T cells, median: n=11
Excerpt: Conversely, the universal A2/PB1413 epitope within the IBV-specific T cell lines was immunodominant (0.3%; detected in 8/11 donors) over the IBV-specific A2/BHA543 (0.11%; detected in 10/11 donors) and A2/BNS1266 epitopes (0.01%) (FIG. 4c).

human lung CD8^+ T cells = assay: Ex vivo tetramer detection in human lung samples from deceased organ donors; assay type: cell-based; conditions: for epitope-specific CD8^+ T cells detected within human lung CD8^+ T cells: n=3 lung donors
Excerpt: As human memory CD8^+ T cells also reside outside the circulation, a rare set of human lung samples from deceased organ donors (n=3) were used to assess the presence of universal A2/PB1413^+CD8^+ T cells at the site of infection. CD8^+ T cells specific for A2/M158 and A2/PB1413, but not A2/BHA543 were detected within human lung CD8^+ T cells (2/3 donors for either specificity, FIG. 3f). […] Although based on a limited number of donors, this analysis indicates the presence of universal A2/PB1413^+ tissue-resident memory CD8^+ T cell pools in the human lung.

CD8^+ T cells [6] = assay: Recall responses in HHD-A2 mice primed with B/Malaysia and challenged with B/Phuket; assay type: in vivo
Excerpt: To further verify the immunogenicity of these epitopes in recall responses, HHD-A2 mice were primed i.n. with B/Malaysia, infected with the heterologous strain B/Phuket 6 weeks later and then assessed CD8^+ T cells against the main epitopes A2/BHA543-551 and A2/BNS1266-274 in the spleen on d8 after challenge.

CD8^+ T cells [7] = assay: In vitro screening and validation in HLA-A*02:01-expressing human PBMCs, CD8^+ T cell lines, IFNγ/TNF ICS; assay type: cell-based
Excerpt: As a next step, the IBV-specific CD8^+ T cell responses towards the 67 LC/MS-identified IBV-peptides in HLA-A*02:01-expressing individuals were dissected. CD8^+ T cell lines specific for each of the 6 peptide pools were established, and then re-stimulated cells with the cognate pool in an IFNγ/TNF ICS assay (FIG. 2f).
To validate these responses independently of the peptide pools, CD8^+ T cell lines were established towards individual immunogenic peptides (FIG. 2i). […] Thus, these thorough in vivo and in vitro analyses identified 5 novel peptides recognized by CD8^+ T cells in complex with the HLA-A*02:01 molecule, with BHA543-551 being immunodominant amongst the peptides tested, in both mice and humans.
Peripheral blood mononuclear cells (PBMC) from healthy A2:01+ donors were cultured in the presence of antigens (10 μM peptide) for 10 days in the presence of IL-2 (10 U/ml). On day 10 PBMCs were stimulated with peptides (1 μM) for 5 hours in the presence of BFA. Cells were surface stained for CD3 and CD8 and intracellularly stained for IFNγ and TNF using the BD cytofix/cytoperm kit according to the manufacturer's instructions (BD Biosciences).
Any pools with positive ICS responses were then dissected to their individual peptides.

CD8^+ T cells [8] = assay type: cell-based, human
tetramer^+CD8^+ T cells = assay type: cell-based, human
HLA-A*02:01 [9] = biological target: T1, HLA-A*02:01; assay: Thermal stability of pHLA-A*02:01 complex (Tm); assay type: binding
CD8^+ T cells [10] = assay type: cell-based, human; remark: listed apart in the source
CD8^+ T cells [11] = tested on: CD8^+ T cells; parameters: species or system HHD-A2 mice; conditions: mouse, in vivo
CD8+ T Lymphocytes = assay type: cell-based, human
[12] = tested on: A2/PB1413-specific CD8^+ T cells; assay type: cell-based, human; conditions: n=24
IBV = tested on: IBV; parameters: species or system HHD-A2 mice; conditions: mouse, in vivo
A2/PB1413^+CD8^+ T cells = assay type: cell-based, human
CD8^+ T cells [13] = tested on: CD8^+ T cells; parameters: species or system A24 mice; conditions: mouse
[14] = IAV-specific CD8^+ T cell lines
[15] = T cell lines towards individual peptides, n=6

## AAYEDLRVL (Influenza B virus) [NP392-400]
CD8+ T cells
  immunogenicity (induction of IFNγ production in CD8+ T cells after peptide re-stimulation): immunogenic

## FEDLRVLSA (Influenza A virus) [NP338-345]
[1]
  memory CD8^+ T cell responses (IFN-γ production after peptide re-stimulation): robust memory CD8^+ T cell responses

## GILGFVFVL [M158-66, GILGFVFVL, reference compound]
CD8^+ T cells [2]
  EC50: 8.1 nM
tetramer^+ CD8^+ T cells [3]
  CD38^+/Ki-67^+ expression of tetramer-positive CD8^+ T cells: increase
  increase in frequency of epitope-specific CD8^+ T cells in blood versus healthy donors: 4.3 fold
  individuals with detected epitope-specific CD8^+ T cells: 100%
HLA-A*02:01 [4]
  Tm (temperature required to unfold 50% of the protein) of pHLA-A*02:01 complex: 65 °C
tetramer^+ CD8^+ T cells [5]; [14]
  donors with detected tetramer^+ cells: 11 donors
  tetramer^+ of CD8^+ T cells, median: 3.9%
Human lung CD8^+ T cells
  epitope-specific CD8^+ T cells detected within human lung CD8^+ T cells: 2/3

## GLDNHTILL [HA543-551, GLDNHTILL]
CD8^+ T cells [6]; primary infection
  polyfunctional IFNγ^+TNF^+IL-2^+ CD8^+ T cells: 0.14 % of CD8^+ T cells
CD8^+ T cells [6]; secondary infection, p=0.013
  polyfunctional IFNγ^+TNF^+IL-2^+ CD8^+ T cells: 2.14 % of CD8^+ T cells
CD8^+ T cells [6]; spleen d8 after B/Phuket challenge, not statistically significant
  number of secondary IFNγ^+TNF^+ CD8^+ T cells in the spleen versus primary infection: ~27 fold
CD8^+ T cells [7]; 10 days culture with 10 μM peptide and IL-2, re-stimulation 1 μM
  ICS responses in healthy A2:01+ donors: detected across multiple donors
CD8^+ T cells [7]; HLA-A*0201^+ donors, dissection of pools into individual peptides
  CD8^+ T cell response hierarchy of individual peptides: immunodominant epitope
CD8^+ T cells [7]; [15]
  CD8^+ T cell response, median: 7.35 % of CD8^+ T cells
  donors with response: 6/6
CD8^+ T cells [8]
  additional low avidity CD8^+ T cells detected by Q115E staining: could be detected
CD8^+ T cells [2]
  EC50: 0.78 nM
tetramer^+ CD8^+ T cells [3]
  CD38^+/Ki-67^+ expression of tetramer-positive CD8^+ T cells: increase
  increase in numbers of epitope-specific CD8^+ T cells versus healthy donors: 2.2 fold
  individuals with detected epitope-specific CD8^+ T cells: 75%
tetramer^+ CD8^+ T cells [5]; IBV-specific T cell lines
  donors with detected tetramer^+ cells: 10/11
  tetramer^+ of CD8^+ T cells, median: 0.11%
Human lung CD8^+ T cells
  epitope-specific CD8^+ T cells detected within human lung CD8^+ T cells: not
tetramer^+CD8^+ T cells
  d14 frequency lower than universal A2/PB1413^+CD8^+ T cells: 5 fold
HLA-A*02:01 [9]
  Tm (temperature required to unfold 50% of the protein) of pHLA-A*02:01 complex: ~72 °C
CD8^+ T cells [10]
  polyfunctionality: inferior
CD8^+ T cells [11]
  CD8+ T cell responses (IFNγ and TNF production): CD8+ T cell responses were targeted
  CD8^+ T cell response, mean: 5 % of CD8^+ T cells
  CD8^+ T cell responses at the site of infection: targeted

## IYFSPIRVTF (Influenza B virus) [NP164-173]
CD8+ T cells
  immunogenicity (induction of IFNγ production in CD8+ T cells after peptide re-stimulation): immunogenic

## IYHPGGNKL (Influenza B virus) [PB2245-253]
CD8+ T cells
  immunogenicity (induction of IFNγ production in CD8+ T cells after peptide re-stimulation): immunogenic

## KYVLFHTSL (Influenza B virus) [PA457-465]
CD8+ T Lymphocytes
  CD8+ T cell responses (IFNγ) after single peptide re-stimulation: immunogenic response

## LYSDILLKF (Influenza B virus) [NA32-40]
CD8+ T cells
  immunogenicity (induction of IFNγ production in CD8+ T cells after peptide re-stimulation): immunogenic

## NFAMELPSF (Influenza B virus) [PB1503-511]
CD8+ T Lymphocytes
  CD8+ T cell responses (IFNγ) after single peptide re-stimulation: immunogenic response

## NMLSTVLGV [PB1413-421, NMLSTVLGV]
[1]
  memory CD8^+ T cell responses (IFN-γ production after peptide re-stimulation): robust memory CD8^+ T cell responses
CD8^+ T cells [8]
  additional low avidity CD8^+ T cells detected by Q115E staining: no additional
CD8^+ T cells [2]
  EC50: 0.89 nM
tetramer^+ CD8^+ T cells [3]
  CD38^+/Ki-67^+ expression of tetramer-positive CD8^+ T cells: increase
  increase in frequency of epitope-specific CD8^+ T cells in blood versus healthy donors: 6 fold
  increase in numbers of epitope-specific CD8^+ T cells versus healthy donors: 2.6 fold
  individuals with detected epitope-specific CD8^+ T cells: 50% and 87.5%
[12]
  healthy donors with detectable levels of epitope-specific CD8^+ T cells: 80%
tetramer^+ CD8^+ T cells [5]; [14]
  donors with detected tetramer^+ cells: 10/11
  tetramer^+ of CD8^+ T cells, median: 0.12%
tetramer^+ CD8^+ T cells [5]; IBV-specific T cell lines
  donors with detected tetramer^+ cells: 8/11
  tetramer^+ of CD8^+ T cells, median: 0.3%
IBV
  epitope-specific CD8^+ T cells after immunization: could not be detected
Human lung CD8^+ T cells; human lung
  phenotype of the majority of lung tetramer^+ CD8^+ T cells: tissue-resident memory CD69^+CD103^+CD45RO^+ phenotype
Human lung CD8^+ T cells
  epitope-specific CD8^+ T cells detected within human lung CD8^+ T cells: 2/3
A2/PB1413^+CD8^+ T cells
  IFN-γ production towards peptide: minimal
  magnitude of A2/PB1413-specific CD8^+ T cells: markedly increased
tetramer^+CD8^+ T cells
  increase from baseline to d14: 19 fold
HLA-A*02:01 [9]
  Tm (temperature required to unfold 50% of the protein) of pHLA-A*02:01 complex: ~72 °C

## RYGFVANF (Influenza A virus) [PB1498-505]
CD8^+ T cells [13]
  in vivo CD8^+ T cell responses: targeted

## SFSFGGFTF (Influenza A virus) [PB2322-330]
CD8^+ T cells [13]
  in vivo CD8^+ T cell responses: targeted

Reference: US11517617B2, “Methods and compositions for preventing influenza infection” (THE UNIVERSITY OF MELBOURNE, priority 2017, dated 2022)
